From PubChem BioAssay AID192 (DTP/NCI, 2004)
“And” between values parts separate entries of the source, which are not always exact repeats. Equal values may be shown once. Toxic doses and inconclusive results are not listed.

Test system: BDF1 mice, B16 melanoma ip, median survival T/C
Test: NCI In Vivo Anticancer Drug Screen. Data for tumor model B16 Melanoma (intraperitoneal) in B6D2F1 (BDF1) mice
Settings: endpoint: median survival time, higher = longer survival
How it was run: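 Tumor-bearing mice received test compound or vehicle. Survival or tumor size was then measured in both groups. The treated-group figure was divided by the control-group figure.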

[1] = dose: 100.0 mg/kg/injection, schedule: Q01DX009 (ip), vehicle: saline with Tween-80
[2] = dose: 200.0 mg/kg/injection, schedule: Q01DX009 (ip), vehicle: saline with Tween-80
[3] = dose: 400.0 mg/kg/injection, schedule: Q01DX009 (ip), vehicle: saline with Tween-80
[4] = dose: 1.0 mg/kg/injection, schedule: Q01DX009 (ip), vehicle: saline
[5] = dose: 2.0 mg/kg/injection, schedule: Q01DX009 (ip), vehicle: saline
[6] = dose: 25.0 mg/kg/injection, schedule: Q01DX009 (ip), vehicle: saline with Tween-80
[7] = dose: 50.0 mg/kg/injection, schedule: Q01DX009 (ip), vehicle: saline with Tween-80
[8] = dose: 300.0 mg/kg/injection, schedule: Q01DX009 (ip), vehicle: Klucel (hydroxypropylcellulose) (HPC)
[9] = dose: 6.25 mg/kg/injection, schedule: Q01DX009 (ip), vehicle: Klucel (hydroxypropylcellulose) (HPC)
[10] = dose: 12.5 mg/kg/injection, schedule: Q01DX009 (ip), vehicle: Klucel (hydroxypropylcellulose) (HPC)
[11] = dose: 25.0 mg/kg/injection, schedule: Q01DX009 (ip), vehicle: Klucel (hydroxypropylcellulose) (HPC)
[12] = dose: 50.0 mg/kg/injection, schedule: Q01DX009 (ip), vehicle: Klucel (hydroxypropylcellulose) (HPC)
[13] = dose: 100.0 mg/kg/injection, schedule: Q01DX009 (ip), vehicle: Klucel (hydroxypropylcellulose) (HPC)
[14] = dose: 200.0 mg/kg/injection, schedule: Q01DX009 (ip), vehicle: Klucel (hydroxypropylcellulose) (HPC)
[15] = dose: 6.25 mg/kg/injection, schedule: Q01DX009 (ip), vehicle: saline
[16] = dose: 12.5 mg/kg/injection, schedule: Q01DX009 (ip), vehicle: saline
[17] = dose: 100.0 mg/kg/injection, schedule: Q04DX003 (ip), vehicle: saline with Tween-80
[18] = dose: 200.0 mg/kg/injection, schedule: Q04DX003 (ip), vehicle: saline with Tween-80

CCCCCCCCCCCCCCCCCS(=O)S(=O)O (stereo not given)
T/C [1]: 113 % of control | T/C [2]: 97 % of control | T/C [3]: 95 % of control

CCCC(=O)NC1=C(N2CC2)C(=O)C(NC(=O)CCC)=C(N2CC2)C1=O
T/C [4]: 86 % of control | T/C [5]: 118 % of control

COc1ccc(/C=C(\C)[N+](=O)[O-])cc1OC
T/C (dose: 12.5 mg/kg/injection, schedule: Q01DX009 (ip), vehicle: other): 88 % of control | T/C (dose: 25.0 mg/kg/injection, schedule: Q01DX009 (ip), vehicle: other): 93 % of control

CC(C)Cc1ccc(C(=O)O)cc1
T/C (dose: 75.0 mg/kg/injection, schedule: Q04DX003 (ip), vehicle: Klucel (hydroxypropylcellulose) (HPC)): 102 % of control | T/C (dose: 150.0 mg/kg/injection, schedule: Q04DX003 (ip), vehicle: Klucel (hydroxypropylcellulose) (HPC)): 105 % of control | T/C (dose: 300.0 mg/kg/injection, schedule: Q04DX003 (ip), vehicle: Klucel (hydroxypropylcellulose) (HPC)): 111 % of control

C[C@]12CC[C@H](OC3OC(CO)C(O)C(O)C3O)C[C@H]1CC[C@@H]1[C@@H]2CC[C@]2(C)[C@@H](C3=CCOC3=O)CC[C@]12O (stereo not given in full)
T/C (dose: 0.5 mg/kg/injection, schedule: Q01DX009 (ip), vehicle: saline): 107 % of control | T/C [4]: 92 % of control | T/C [5]: 105 % of control

Clc1ccc(CN2COc3c(ccc4cccnc34)C2)cc1Cl
T/C [6]: 106 % of control | T/C [7]: 108 % of control | T/C [1]: 107 % of control

Cc1c(Cl)ccc2c(C(O)CBr)cc(-c3ccccc3)nc12 (stereo not given)
T/C [1]: 91 % of control | T/C [2]: 87 % of control

CCc1ccccc1NC(=O)Nc1ccc(Cl)c(Cl)c1
T/C (dose: 75.0 mg/kg/injection, schedule: Q01DX009 (ip), vehicle: Klucel (hydroxypropylcellulose) (HPC)): 102 % of control | T/C (dose: 150.0 mg/kg/injection, schedule: Q01DX009 (ip), vehicle: Klucel (hydroxypropylcellulose) (HPC)): 97 % of control | T/C [8]: 89 % of control

C[C@]12CC[C@@H]3c4ccc(O)cc4CC[C@H]3[C@@H]1CC[C@@H]2O
T/C [9]: 97 % of control | T/C [10]: 94 % of control | T/C [11]: 93 % of control | T/C [12]: 97 % of control | T/C [13]: 88 % of control | T/C [14]: 87 % of control

COc1cccc(C2CCN(C)C2)c1 (stereo not given)
T/C [9]: 89 % of control | T/C [10]: 100 % of control | T/C [11]: 100 % of control

CO[C@H](C)[C@@](O)(C(=O)OCC1=CCN2CCC[C@@H]12)C(C)C
T/C (dose: 10.0 mg/kg/injection, schedule: Q01DX009 (ip), vehicle: saline): 114 % of control | T/C (dose: 20.0 mg/kg/injection, schedule: Q01DX009 (ip), vehicle: saline): 104 % of control | T/C (dose: 40.0 mg/kg/injection, schedule: Q01DX009 (ip), vehicle: saline): 100 % of control | T/C (dose: 80.0 mg/kg/injection, schedule: Q01DX009 (ip), vehicle: saline): 95 % of control

Cc1cc(=O)n2c3c(cc(C#N)cc13)OC2
T/C (dose: 100.0 mg/kg/injection, schedule: Q04DX003 (ip), vehicle: Klucel (hydroxypropylcellulose) (HPC)): 92 % of control | T/C (dose: 200.0 mg/kg/injection, schedule: Q04DX003 (ip), vehicle: Klucel (hydroxypropylcellulose) (HPC)): 95 % of control | T/C (dose: 400.0 mg/kg/injection, schedule: Q04DX003 (ip), vehicle: Klucel (hydroxypropylcellulose) (HPC)): 92 % of control

COc1ccc(C(=O)C(C)C(O)C(=O)O)c(O)c1C (stereo not given)
T/C (dose: 100.0 mg/kg/injection, schedule: Q01DX009 (ip), vehicle: other): 93 % of control

N=[N+]=CC(=O)OCC(N)C(=O)O (stereo not given)
T/C (dose: 1.5 mg/kg/injection, schedule: Q01DX009 (ip), vehicle: other): 100 % of control | T/C (dose: 3.13 mg/kg/injection, schedule: Q01DX009 (ip), vehicle: saline): 100 % of control | T/C (dose: 5.0 mg/kg/injection, schedule: Q04DX003 (ip), vehicle: water): 102 % of control | T/C [15]: 102 % of control | T/C (dose: 10.0 mg/kg/injection, schedule: Q04DX003 (ip), vehicle: other): 100 % of control | T/C [16]: 105 % of control | T/C (dose: 15.0 mg/kg/injection, schedule: Q04DX003 (ip), vehicle: water): 115 % of control | T/C (dose: 20.0 mg/kg/injection, schedule: Q04DX003 (ip), vehicle: other): 100 % of control | T/C (dose: 375.0 micrograms/kg/injection, schedule: Q01DX009 (ip), vehicle: water): 118 % of control | T/C (dose: 750.0 micrograms/kg/injection, schedule: Q01DX009 (ip), vehicle: water): 107 % of control

COc1ccccc1C(=O)c1ccccc1Cc1cccc2ccccc12
T/C [7]: 98 % of control | T/C [1]: 97 % of control | T/C [2]: 92 % of control | T/C [3]: 93 % of control

Nc1nc(=S)c2ncn(C3OC(COC(=O)c4ccccc4)C(OC(=O)c4ccccc4)C3OC(=O)c3ccccc3)c2[nH]1 (stereo not given)
T/C [6]: 115 % of control

CCCCCCCC(=O)OCC(=O)[C@]1(O)Cc2c(O)c3c(c(O)c2[C@@H](OC2CC(N)C(O)C(C)O2)C1)C(=O)c1c(OC)cccc1C3=O (stereo not given in full)
T/C (dose: 0.25 mg/kg/injection, schedule: Q01DX009 (ip), vehicle: saline with Tween-80): 176 % of control | T/C (dose: 0.5 mg/kg/injection, schedule: Q01DX009 (ip), vehicle: saline with Tween-80): 222 % of control | T/C (dose: 1.0 mg/kg/injection, schedule: Q01DX009 (ip), vehicle: saline with Tween-80): 151 % of control and 212 % of control | T/C (dose: 1.25 mg/kg/injection, schedule: Q01DX001 (ip), vehicle: water): 170 % of control | T/C (dose: 2.0 mg/kg/injection, schedule: Q01DX009 (ip), vehicle: saline with Tween-80): 150 % of control and 274 % of control | T/C (dose: 2.5 mg/kg/injection, schedule: Q01DX001 (ip), vehicle: water): 117 % of control (2×) and 214 % of control | T/C (dose: 5.0 mg/kg/injection, schedule: Q01DX001 (ip), vehicle: water): 97 % of control and 252 % of control | T/C (dose: 10.0 mg/kg/injection, schedule: Q01DX001 (ip), vehicle: water): 227 % of control | T/C (dose: 20.0 mg/kg/injection, schedule: Q01DX001 (ip), vehicle: water): 122 % of control | T/C (dose: 1440.0 micrograms/kg/injection, schedule: Q01DX004 (ip), vehicle: other): 115 % of control | T/C (dose: 2400.0 micrograms/kg/injection, schedule: Q01DX004 (ip), vehicle: other): 110 % of control | T/C (dose: 4000.0 micrograms/kg/injection, schedule: Q01DX004 (ip), vehicle: other): 122 % of control

S=C=NCCCCCCCCCCCCN=C=S
T/C (dose: 3.12 mg/kg/injection, schedule: Q01DX009 (ip), vehicle: saline with Tween-80): 99 % of control | T/C (dose: 6.25 mg/kg/injection, schedule: Q01DX009 (ip), vehicle: saline with Tween-80): 86 % of control | T/C (dose: 12.5 mg/kg/injection, schedule: Q01DX009 (ip), vehicle: saline with Tween-80): 98 % of control

CC1(O)CC2CCC1C2 (stereo not given)
T/C [17]: 102 % of control | T/C [18]: 102 % of control | T/C (dose: 400.0 mg/kg/injection, schedule: Q04DX003 (ip), vehicle: saline with Tween-80): 100 % of control

C=CCNc1ccc(C)cc1
T/C [10]: 105 % of control | T/C [11]: 96 % of control | T/C [12]: 88 % of control | T/C [13]: 91 % of control

CCOC(=O)C(C)Nc1ccccc1 (stereo not given)
T/C [13]: 102 % of control | T/C [14]: 91 % of control | T/C [8]: 121 % of control

CCCC(Cc1ccccc1)N1CCCC1 (stereo not given)
T/C (dose: 1.56 mg/kg/injection, schedule: Q01DX009 (ip), vehicle: saline): 105 % of control | T/C (dose: 3.12 mg/kg/injection, schedule: Q01DX009 (ip), vehicle: saline): 100 % of control | T/C [15]: 92 % of control | T/C [16]: 115 % of control | T/C (dose: 25.0 mg/kg/injection, schedule: Q01DX009 (ip), vehicle: saline): 102 % of control

CN(C)CCCC(=O)O
T/C (dose: 100.0 mg/kg/injection, schedule: Q01DX009 (ip), vehicle: saline): 98 % of control | T/C (dose: 200.0 mg/kg/injection, schedule: Q01DX009 (ip), vehicle: saline): 96 % of control | T/C (dose: 400.0 mg/kg/injection, schedule: Q01DX009 (ip), vehicle: saline): 93 % of control

COc1cc(C(=O)CO)cc(OC)c1OC(C)=O
T/C [17]: 95 % of control | T/C [18]: 87 % of control

COC(=O)C1C(O)C(C)C(=O)C(C)/C=C\C=C(C)C(=O)Nc2c(C)c(OC(C)=O)c3c(c2O)C(=O)C(C)=C2OCOC(=C23)C(C)=CC(C)(O)C(O)C(C)C1O (stereo not given)
T/C [13]: 89 % of control | T/C [14]: 89 % of control
